Data from publication PMC5681660, “Reduced hepatitis B and D viral entry using clinically applied drugs as novel inhibitors of the bile acid transporter NTCP” (Scientific Reports, 2017).
Counter-ions that a name gives are not always drawn. Like-named read-outs stand apart in the source and are kept apart here.

Tests used:
[1] = target: T1, human NTCP (Homo sapiens, UniProt Q14973); test: Screening fluorescent competitive Myrcludex B-FITC binding assay (96-well, 10 µM drug)
T1 sequence (Q14973 1-349): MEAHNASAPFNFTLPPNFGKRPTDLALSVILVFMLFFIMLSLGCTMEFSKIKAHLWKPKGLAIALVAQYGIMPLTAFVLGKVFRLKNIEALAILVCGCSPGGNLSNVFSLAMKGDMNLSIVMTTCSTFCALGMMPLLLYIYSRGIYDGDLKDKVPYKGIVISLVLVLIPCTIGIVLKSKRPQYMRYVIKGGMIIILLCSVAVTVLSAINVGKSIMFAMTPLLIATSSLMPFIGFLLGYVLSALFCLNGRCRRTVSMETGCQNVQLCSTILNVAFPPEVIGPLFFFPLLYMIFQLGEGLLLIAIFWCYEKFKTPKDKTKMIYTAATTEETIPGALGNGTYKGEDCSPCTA

[2] = target: T1, human NTCP; test: Screening taurocholate uptake assay (96-well, [14C]taurocholate, 10 µM drug)
[3] = screen, 10 µM drug, Myrcludex B-FITC binding
[4] = combined ranking from functional and binding screening assays
[5] = screen, 10 µM drug, taurocholate uptake
[6] = Prestwick library screen, 10 µM drug, B-score of Myrcludex B-FITC binding
[7] = Prestwick library screen, 10 µM drug, B-score of taurocholate uptake
[8] = combined ranking from functional and binding assay B-scores
[9] = Prestwick library screen, Myrcludex B-FITC binding, 10 µM drug
[10] = Prestwick library screen, taurocholate uptake, 10 µM drug
[11] = ranking score beside the functional and binding assay B-scores of the screen

SMILES: CCCSc1ccc2nc(NC(=O)OC)[nH]c2c1 [Albendazole]
- B-score binding assay [1]: 0.993
- B-score functional assay [2]: -0.13
- Ranking score [2]: 731.855

SMILES: C=CC[N@@+]12CC[C@@]34c5ccccc5N5/C=C6/[C@H]7C[C@H]8[C@@]9(CC[N@@+]8(CC=C)C/C7=C/CO)c7ccccc7N(/C=C(/[C@@H](C[C@@H]31)/C(=C\CO)C2)[C@H]54)[C@@H]69.[Cl-].[Cl-] [Alcuronium chloride]
- B-score binding assay [1, 3]: -1.767
- Ranking score [2, 4]: 375.739
- B-score functional assay [2, 5]: 1.096

SMILES: NCCCC(O)(P(=O)(O)O)P(=O)(O)O [Alendronate sodium]
- B-score binding assay [1, 3]: -0.968
- Ranking score [2, 4]: 453.598
- B-score functional assay [2, 5]: 0.279

SMILES: CC(=O)OCC(=O)[C@H]1CC[C@H]2[C@@H]3CC[C@H]4C[C@H](O)CC[C@]4(C)[C@H]3C(=O)C[C@]12C [Alfadolone acetate]
- B-score binding assay [1, 6]: 2.253
- B-score functional assay [2, 7]: 0.626
- Ranking score [2, 8]: 1074.24

SMILES: Oc1ncnc2[nH]ncc12 [Allopurinol]
- B-score binding assay [1, 9]: 0.547
- B-score functional assay [2, 10]: 0.076
- Ranking score [2, 11]: 820.729

SMILES: CCCCC[C@H](O)/C=C/[C@H]1[C@H](O)CC(=O)[C@@H]1CCCCCCC(=O)O [Alprostadil]
- B-score binding assay [1, 9]: 0.02
- B-score functional assay [2, 10]: 0.966
- Ranking score [2, 11]: 841.475

SMILES: C=CCSCC1Nc2cc(Cl)c(S(N)(=O)=O)cc2S(=O)(=O)N1 (stereo not drawn) [Althiazide]
- B-score binding assay [1, 6]: 0.861
- B-score functional assay [2, 7]: 0.092
- Ranking score [2, 8]: 866.45

SMILES: CCN(CCCc1ccccc1)CCCc1ccccc1.O=C(O)CC(O)(CC(=O)O)C(=O)O [Alverine citrate salt]
- B-score binding assay [1, 3]: -0.052
- Ranking score [2, 4]: 318.591
- B-score functional assay [2, 5]: -1.552

SMILES: Cl.Nc1c(Br)cc(Br)cc1CNC1CCC(O)CC1 (stereo not drawn) [Ambroxol hydrochloride]
- B-score binding assay [1, 6]: 1.513
- B-score functional assay [2, 7]: 0.006
- Ranking score [2, 8]: 860.528

SMILES: CCN(CC)C(C)C(=O)c1ccccc1 (stereo not drawn) [Amfepramone hydrochloride]
- B-score binding assay [1, 6]: 2.906
- B-score functional assay [2, 7]: 0.339
- Ranking score [2, 8]: 1034.63

SMILES: Cc1c(N(C)C)c(=O)n(-c2ccccc2)n1C [Amidopyrine]
- B-score binding assay [1, 3]: -1.103
- Ranking score [2, 4]: 343.366
- B-score functional assay [2, 5]: -0.111

SMILES: NCCCNCCSP(=O)(O)O [Amifostine]
- B-score binding assay [1, 9]: 0.481
- B-score functional assay [2, 10]: 0.006
- Ranking score [2, 11]: 764.099

SMILES: NCC[C@H](O)C(=O)N[C@@H]1C[C@H](N)[C@@H](O[C@H]2O[C@H](CN)[C@@H](O)[C@H](O)[C@H]2O)[C@H](O)[C@H]1O[C@H]1O[C@H](CO)[C@@H](O)[C@H](N)[C@H]1O [Amikacin hydrate]
- B-score binding assay [1, 6]: 0.912
- B-score functional assay [2, 7]: 1.395
- Ranking score [2, 8]: 1074.44

SMILES: N=C(N)NC(=O)c1nc(Cl)c(N)nc1N [Amiloride hydrochloride dihydrate]
- B-score binding assay [1, 3]: 1.12
- Ranking score [2, 4]: 420.464
- B-score functional assay [2, 5]: -1.628

SMILES: NCCCCCC(=O)O [Aminocaproic acid]
- B-score binding assay [1, 6]: 1.053
- B-score functional assay [2, 7]: 1.656
- Ranking score [2, 8]: 1108.16

SMILES: Nc1ccc(C(=O)NCC(=O)O)cc1 [Aminohippuric acid]
- B-score binding assay [1, 6]: 0.866
- B-score functional assay [2, 7]: 1.44
- Ranking score [2, 8]: 1073.5

SMILES: c1ccc(CNc2ncnc3[nH]cnc23)cc1 [Aminopurine, 6-benzyl]
- B-score binding assay [1, 3]: -1.308
- Ranking score [2, 4]: 337.92
- B-score functional assay [2, 5]: -0.027

SMILES: CCCCc1oc2ccccc2c1C(=O)c1cc(I)c(OCCN(CC)CC)c(I)c1 [Amiodarone hydrochloride]
- B-score binding assay [1, 9]: 1.025
- B-score functional assay [2, 10]: 0.027
- Ranking score [2, 11]: 845.421

SMILES: CN(C)CCCO[C@@H]1[C@H]2OC(C)(C)O[C@H]2O[C@@H]1[C@H](O)CO [Amiprilose hydrochloride]
- B-score binding assay [1, 9]: 0.378
- B-score functional assay [2, 10]: 0.017
- Ranking score [2, 11]: 760.053

SMILES: CCN1CCCC1CNC(=O)c1cc(S(=O)(=O)CC)c(N)cc1OC (stereo not drawn) [Amisulpride]
- B-score binding assay [1, 6]: 0.863
- B-score functional assay [2, 7]: 0.107
- Ranking score [2, 8]: 873.097

SMILES: CN(C)CCC=C1c2ccccc2CCc2ccccc21.Cl [Amitryptiline hydrochloride]
- B-score binding assay [1, 9]: 2.835
- B-score functional assay [2, 10]: -0.217
- Ranking score [2, 11]: 769.935

SMILES: CCOC(=O)C1=C(COCCN)NC(C)=C(C(=O)OC)C1c1ccccc1Cl (stereo not drawn) [Amlodipine]
- B-score binding assay [1, 6]: 2.427
- B-score functional assay [2, 7]: 0.5
- Ranking score [2, 8]: 1057.69

SMILES: CCN(CC)Cc1cc(Nc2ccnc3cc(Cl)ccc23)ccc1O.Cl.Cl.O.O [Amodiaquin dihydrochloride dihydrate]
- B-score binding assay [1, 9]: 1.445
- B-score functional assay [2, 10]: -0.477
- Ranking score [2, 11]: 658.143

SMILES: Cc1c(N)c(=O)n(-c2ccccc2)n1C [Ampyrone]
- B-score binding assay [1]: 0.217
- B-score functional assay [2]: 0.135
- Ranking score [2]: 788.348

SMILES: Nc1cc(-c2ccncc2)c[nH]c1=O [Amrinone]
- B-score binding assay [1, 3]: -0.056
- Ranking score [2, 4]: 350.268
- B-score functional assay [2, 5]: -1.236

SMILES: O=C1CN2Cc3c(ccc(Cl)c3Cl)N=C2N1 [Anagrelide]
- B-score binding assay [1, 6]: 0.622
- B-score functional assay [2, 7]: 0.197
- Ranking score [2, 8]: 871.654

SMILES: C[C@]12CC[C@@H](O)C[C@@H]1CC[C@@H]1[C@@H]2CC[C@]2(C)C(=O)CC[C@@H]12 [Androsterone]
- B-score binding assay [1]: 1.069
- B-score functional assay [2]: 0.451
- Ranking score [2]: 969.912

SMILES: COc1ccc(-c2cc(=S)ss2)cc1 [Anethole-trithione]
- B-score binding assay [1, 9]: -0.048
- B-score functional assay [2, 10]: 0.437
- Ranking score [2, 11]: 719.937

SMILES: COc1ccc(C(=O)N2CCCC2=O)cc1 [Aniracetam]
- B-score binding assay [1, 3]: -0.157
- Ranking score [2, 4]: 340.074
- B-score functional assay [2, 5]: -1.196

SMILES: c1ccc(CN(CC2=NCCN2)c2ccccc2)cc1 [Antazoline hydrochloride]
- B-score binding assay [1, 6]: 0.166
- B-score functional assay [2, 7]: 1.194
- Ranking score [2, 8]: 927.719

SMILES: CN[C@@H]1[C@@H](O[C@H]2O[C@H](CO)[C@@H](N)[C@H](O)[C@H]2O)OC2C[C@@H](N)[C@@H](O[C@H]3[C@H](O)[C@@H](O)[C@H](N)C[C@@H]3N)OC2[C@@H]1O (stereo partly drawn) [Apramycin]
- B-score binding assay [1, 3]: -0.447
- Ranking score [2, 4]: 397.98
- B-score functional assay [2, 5]: -0.431

SMILES: OC[C@H]1O[C@@H](Oc2ccc(O)cc2)[C@H](O)[C@@H](O)[C@@H]1O [Arbutin]
- B-score binding assay [1, 6]: 0.372
- B-score functional assay [2, 7]: 0.864
- Ranking score [2, 8]: 944.447

SMILES: CC1CNc2c(cccc2S(=O)(=O)N[C@@H](CCCNC(=N)N)C(=O)N2CC[C@@H](C)C[C@@H]2C(=O)O)C1 (stereo partly drawn) [Argatroban]
- B-score binding assay [1, 9]: 0.437
- B-score functional assay [2, 10]: -0.168
- Ranking score [2, 11]: 668.874

SMILES: C[C@@H]1CC[C@H]2[C@@H](C)C(=O)O[C@@H]3O[C@@]4(C)CC[C@@H]1[C@]32OO4 [Artemisinin]
- B-score binding assay [1, 9]: -0.138
- B-score functional assay [2, 10]: 0.234
- Ranking score [2, 11]: 655.672

SMILES: CCCNC(C)C(=O)Nc1c(C)csc1C(=O)OC (stereo not drawn) [Articaine hydrochloride]
- B-score binding assay [1, 3]: 0.267
- Ranking score [2, 4]: 451.414
- B-score functional assay [2, 5]: -1.04

SMILES: O=C1O[C@H]([C@@H](O)CO)C(O)=C1O [Ascorbic acid]
- B-score binding assay [1, 3]: 0.271
- Ranking score [2, 4]: 365.334
- B-score functional assay [2, 5]: -1.672

SMILES: O=C1C(O)=C([C@H]2CC[C@H](c3ccc(Cl)cc3)CC2)C(=O)c2ccccc21 [Atovaquone]
- B-score binding assay [1, 9]: 0.68
- B-score functional assay [2, 10]: -0.283
- Ranking score [2, 11]: 659.659

SMILES: COc1ccc(CC2c3cc(OC)c(OC)cc3CC[N+]2(C)CCC(=O)OCCCCCOC(=O)CC[N+]2(C)CCc3cc(OC)c(OC)cc3C2Cc2ccc(OC)c(OC)c2)cc1OC (stereo not drawn) [Atracurium besylate]
- B-score binding assay [1, 6]: 0.189
- B-score functional assay [2, 7]: 2.141
- Ranking score [2, 8]: 978.724

SMILES: CC(=O)OC[C@H]1O[C@@H]([S-])[C@H](OC(C)=O)[C@@H](OC(C)=O)[C@@H]1OC(C)=O.CCP(CC)CC.[Au+] [Auranofin]
- B-score binding assay [1, 9]: -0.068
- B-score functional assay [2, 10]: 0.729
- Ranking score [2, 11]: 748.559

SMILES: Nc1ncn([C@@H]2O[C@H](CO)[C@@H](O)[C@H]2O)c(=O)n1 [Azacytidine-5]
- B-score binding assay [1, 6]: 1.257
- B-score functional assay [2, 7]: 0.011
- Ranking score [2, 8]: 847.665

SMILES: Nc1nc(O)c2[nH]nnc2n1 [Azaguanine-8]
- B-score binding assay [1, 6]: 0.825
- B-score functional assay [2, 7]: 3.711
- Ranking score [2, 8]: 1120.13

SMILES: O=C(CCCN1CCN(c2ccccn2)CC1)c1ccc(F)cc1 [Azaperone]
- B-score binding assay [1, 6]: 0.326
- B-score functional assay [2, 7]: 0.852
- Ranking score [2, 8]: 931.399

SMILES: CCCC1C(=O)N2C(N(C)C)=Nc3ccc(C)cc3N2C1=O (stereo not drawn) [Azapropazone]
- B-score binding assay [1]: -1.852
- B-score functional assay [2]: -0.788
- Ranking score [2]: 190.672

SMILES: CN1CCC(=C2c3ccccc3CCc3cccnc32)CC1 [Azatadine maleate]
- B-score binding assay [1, 6]: 1.844
- B-score functional assay [2, 7]: 0.678
- Ranking score [2, 8]: 1070.86
